Target: Bcl-XL (Homo sapiens, UniProt Q07817)
Format: binding

Bcl-XL, sequence (Q07817 whole entry): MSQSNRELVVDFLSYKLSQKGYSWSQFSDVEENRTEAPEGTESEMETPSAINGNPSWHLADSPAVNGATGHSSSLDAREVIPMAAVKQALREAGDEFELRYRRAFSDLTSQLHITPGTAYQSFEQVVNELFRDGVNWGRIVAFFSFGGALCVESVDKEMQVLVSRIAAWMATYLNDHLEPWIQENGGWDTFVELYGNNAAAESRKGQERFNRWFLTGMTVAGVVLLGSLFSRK

Question: How did the IC50 turn out when CC1(C)CCN(c2ccc(C(=O)NS(=O)(=O)c3ccc(NCCSc4ccccc4)c([N+](=O)[O-])c3)cc2)CC1 [SZ4TA2] was run?
Answer: 78.8 nM
